The values that follow are results of earlier work, collected in publication PMC11748363, “Antimicrobial and Antiproliferative Properties of 2‐Phenyl‐N‐(Pyridin‐2‐yl)acetamides” (Chemical Biology & Drug Design, 2025).

This data set concerns Mycobacterium tuberculosis H37Ra. On the set-up: method as in Nawrot et al. 2021. The following applies: previously published N‐pyridinyl benzamides; ref Nawrot et al. 2021; cited from earlier work.

≈ marks a conversion by molar mass, not a printed value.

As for `O=C(Nc1cccc(Cl)n1)c1ccccc1Cl` [C00003 R1=6-Cl,R2=2-Cl], the “MIC Mtb H37Ra (μg/mL), previously published compounds” value (“MIC Mtb H37Ra (μg/mL)” below) is 62.5 µg/mL (≈ 234 µM).

For the compound `COc1ccc(C(=O)Nc2ccc(Cl)cn2)cc1` [C00003 R1=5-Cl,R2=4-OMe], the “MIC Mtb H37Ra (μg/mL)” value was 62.5 µg/mL (≈ 238 µM).

As to `O=C(Nc1ccccn1)c1ccc(Cl)cc1` [C00003 R1=H,R2=4-Cl], the “MIC Mtb H37Ra (μg/mL)” value was 62.5 µg/mL (≈ 269 µM).

Take `COc1ccc(C(=O)Nc2ccccn2)cc1` [C00003 R1=H,R2=4-OMe]: the “MIC Mtb H37Ra (μg/mL)” value was 62.5 µg/mL (≈ 274 µM).

With `O=C(Nc1ccc(Cl)cn1)c1cccc(Cl)c1` [C00003 R1=5-Cl,R2=3-Cl], the “MIC Mtb H37Ra (μg/mL)” value was 31.25 µg/mL (≈ 117 µM).

For the compound `O=C(Nc1ccc(Cl)cn1)c1ccccc1` [C00003 R1=5-Cl,R2=H], the “MIC Mtb H37Ra (μg/mL)” value is greater than 500 µg/mL.

Turning to `O=C(Nc1cccc(Cl)n1)c1cccc(Cl)c1` [C00003 R1=6-Cl,R2=3-Cl], the “MIC Mtb H37Ra (μg/mL)” value was 15.625 µg/mL (≈ 58.5 µM).

With `COc1cccc(C(=O)Nc2ccccn2)c1` [C00003 R1=H,R2=3-OMe], the “MIC Mtb H37Ra (μg/mL)” value was 62.5 µg/mL (≈ 274 µM).

For `COc1ccc(C(=O)Nc2cccc(Cl)n2)cc1` [C00003 R1=6-Cl,R2=4-OMe], the “MIC Mtb H37Ra (μg/mL)” value was 15.625 µg/mL (≈ 59.5 µM).

Turning to `O=C(Nc1ccccn1)c1ccccc1Cl` [C00003 R1=H,R2=2-Cl], the “MIC Mtb H37Ra (μg/mL)” value is greater than 500 µg/mL.

On to `O=C(Nc1cccc(Cl)n1)c1cccc(C(F)(F)F)c1` [C00003 R1=6-Cl,R2=3-CF3], for which the “MIC Mtb H37Ra (μg/mL)” value is 7.81 µg/mL (≈ 26 µM).

For the compound `O=C(Nc1cccc(Cl)n1)c1ccc(Cl)cc1` [C00003 R1=6-Cl,R2=4-Cl], the “MIC Mtb H37Ra (μg/mL)” value was greater than 500 µg/mL.

`COc1ccccc1C(=O)Nc1cccc(Cl)n1` [C00003 R1=6-Cl,R2=2-OMe]: the “MIC Mtb H37Ra (μg/mL)” value is greater than 500 µg/mL.
